From the supplement of paper PMC10702517
± gives the standard deviation.

How the values were obtained:
[1] = chemical recovery by SPE of plasma after PDMS sampling; higher = better extraction; conditions: pooled human plasma, extraction method: HLB SPE of plasma after PES
[2] = chemical recovery from spiked human plasma; higher = better extraction; conditions: pooled human plasma
[3] = chemical recovery into PDMS from spiked human plasma; higher = better extraction; conditions: pooled human plasma, extraction method: PES with PDMS
[4] = extraction method: PES+SPE (3 d PDMS equilibration then HLB SPE)
[5] = extraction method: SPE only (HLB 96-well)
[6] = extraction method: SPE only (HLB 96-well), PES comparison experiment
[7] = extraction method: solvent precipitation (ACN + hexane)
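Wherever chemical recovery by SPE of plasma after PDMS sampling is given: over 400 spiked chemicals quantified by LC-HRMS or GC-HRMS via internal standard calibration, recovery relative to spike mix added to unspiked plasma extract to correct matrix effects.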

Row | chemical recovery by SPE of plasma ([1]; equilibration time (d): 1) [%] | chemical recovery by SPE of plasma ([1]; equilibration time (d): 3) [%] | chemical recovery by SPE of plasma ([1]; equilibration time (d): 6) [%] | chemical recovery [2, 4] [%] | chemical recovery [2, 5] [%] | chemical recovery into PDMS ([3]; equilibration time (d): 1) [%] | chemical recovery into PDMS ([3]; equilibration time (d): 3) [%] | chemical recovery into PDMS ([3]; equilibration time (d): 6) [%] | SMILES | chemical recovery [2, 6] [%] | chemical recovery [2, 7] [%]
1 | 1.19 ± 0.08 | 1.11 ± 0.26 | 0.544 ± 0.065 | 0.74 ± 0.14 | 39.1 ± 3.5 | 0.000645 ± 0.0011 | – | – | CN1CCN(C2=Nc3cc(Cl)ccc3Nc3ccccc32)CC1 [Clozapine] | 27.7 ± 11 | 68.3 ± 3.6
2 | 6.83 ± 6.3 | 2.33 ± 0.49 | 4.13 ± 1.4 | 23.3 ± 6.5 | 6.77 ± 2.8 | 6.6 ± 0.43 | 10.6 ± 2.5 | 11.6 ± 1.5 | CN1C(=O)CC[C@H]1c1cccnc1 [Cotinine] | – | 80.5 ± 3.5
3 | 7.95 ± 6.1 | 5.41 ± 0.92 | 8.35 ± 3.4 | 5.77 ± 0.89 | 7.88 ± 2.3 | – | 0.0113 ± 0.022 | 0.00679 ± 0.0059 | O=S(=O)(O)NC1CCCCC1 [Cyclamate] | – | 71.8 ± 4.1
4 | 7.2 ± 0.97 | 4.61 ± 0.52 | 2.35 ± 0.21 | – | – | 34.4 ± 3.3 | 39 ± 1.6 | 39.5 ± 1.2 | CC(=O)[C@@]1(O)CC[C@H]2[C@@H]3C=C(Cl)C4=CC(=O)[C@@H]5C[C@@H]5[C@]4(C)[C@H]3CC[C@@]21C [Cyproterone] | 44.8 ± 7 | –
5 | 30.4 ± 3.7 | 26.3 ± 3.2 | 19 ± 2.4 | 61.1 ± 5.3 | 45.4 ± 3.1 | 11.2 ± 0.61 | 16.9 ± 1.5 | 18.5 ± 2.4 | CC(C)Nc1nc(N)nc(Cl)n1 [Desethylatrazine] | 51 ± 8.1 | 45 ± 15
6 | 10 ± 1.1 | 9.29 ± 1 | 6.03 ± 0.45 | 40.7 ± 4.8 | 42.1 ± 2.3 | 38 ± 1.5 | 40.9 ± 0.82 | 42.7 ± 1.9 | CC(C)(C)Nc1nc(N)nc(Cl)n1 [Desethylterbutylazine] | 46.9 ± 5.4 | –
7 | 3.67 ± 0.83 | 4.32 ± 0.44 | 2.93 ± 0.67 | 2.22 ± 0.35 | 30.1 ± 1.7 | 0.203 ± 0.15 | 0.0639 ± 0.025 | 0.452 ± 0.57 | Clc1ccc2c(c1)CCc1cccnc1C2=C1CCNCC1 [Desloratadine] | – | 59.9 ± 1.8
8 | 2.76 ± 0.75 | 2.06 ± 0.86 | 3.77 ± 0.81 | – | – | 0.0144 ± 0.043 | 0.133 ± 0.038 | 0.161 ± 0.2 | Nc1cn[nH]c(=O)c1Cl [Desphenyl chloridazon] | 6.79 ± 4.2 | –
9 | 46.9 ± 7.3 | 53.3 ± 3.2 | 48 ± 4.5 | – | – | 0.000876 ± 0.0015 | 0.000445 ± 0.00077 | – | COCCN(C(=O)CS(=O)(=O)O)c1c(C)cccc1C [Dimethachlor ESA] | 50.3 ± 3.3 | –
10 | 60.2 ± 9.2 | 69.4 ± 2.3 | 61.4 ± 2.8 | – | 28.1 ± 6.4 | – | – | 0.00348 ± 0.006 | COCCN(C(=O)C(=O)O)c1c(C)cccc1C [Dimethachlor OA] | 51.3 ± 3.7 | 56.8 ± 7.6
11 | 3.56 ± 3.1 | 9.02 ± 0.83 | 7.35 ± 0.63 | 60.1 ± 20 | 35.7 ± 4 | 42.8 ± 4.3 | 44.9 ± 3.4 | 43.2 ± 1.9 | CNC(=O)/C(=N/OC)c1ccccc1COc1cc(C)ccc1C [Dimoxystrobin] | 50.3 ± 9.1 | 72.7 ± 5.8
12 | 0.988 ± 0.82 | 0.992 ± 0.41 | 0.785 ± 0.37 | – | 7.45 ± 4.7 | 3.85 ± 3.4 | 5.97 ± 3 | 6.08 ± 2.5 | CCCCCCCCc1cccc(Nc2ccccc2)c1CCCCCCCC [Dioctyldiphenylamine] | – | –
13 | 0.353 ± 0.014 | 0.464 ± 0.19 | 0.236 ± 0.039 | 0.391 ± 0.13 | 44.7 ± 3 | 0.00464 ± 0.0041 | 0.0114 ± 0.013 | – | CN(C)CCOC(c1ccccc1)c1ccccc1 [Diphenhydramine] | 50.3 ± 5.5 | 52.4 ± 4.6
14 | – | 10.1 ± 5.8 | 5.98 ± 9.4 | – | 20.4 ± 5.3 | 33.8 ± 1.2 | – | 40.4 ± 12 | c1ccc(Cc2ccccc2)cc1 [Diphenylmethane] | – | –
15 | 8.44 ± 0.83 | 7.52 ± 0.91 | 4.83 ± 0.33 | 56.2 ± 5 | 48.9 ± 3.2 | 32.6 ± 1.8 | 36.3 ± 1.6 | 37 ± 2 | CN(C)C(=O)Nc1ccc(Cl)c(Cl)c1 [Diuron] | 55.9 ± 7.4 | 74.6 ± 2.9

Row | SMILES | chemical recovery by SPE of plasma ([1]; equilibration time (d): 1) [%] | chemical recovery by SPE of plasma ([1]; equilibration time (d): 3) [%] | chemical recovery by SPE of plasma ([1]; equilibration time (d): 6) [%] | chemical recovery [2, 4] [%] | chemical recovery [2, 5] [%] | chemical recovery into PDMS ([3]; equilibration time (d): 1) [%] | chemical recovery into PDMS ([3]; equilibration time (d): 3) [%] | chemical recovery into PDMS ([3]; equilibration time (d): 6) [%] | chemical recovery [2, 6] [%] | chemical recovery [2, 7] [%]
16 | Cc1cc(C2CC2)nc(Nc2ccccc2)n1 [Cyprodinil] | 0.89 ± 0.78 | 0.733 ± 0.65 | 0.362 ± 0.33 | – | – | 33.5 ± 1.8 | 36.1 ± 3.9 | 36.2 ± 1.2 | 38.5 ± 5.9 | 69.9 ± 3.2
17 | Nc1nc(N)nc(NC2CC2)n1 [Cyromazine] | – | – | 5.59 ± 4.5 | 3.13 ± 0.61 | 2.36 ± 2.5 | – | – | 1.4 ± 0.44 | – | 72.9 ± 2.3
18 | CN(C)NC(=O)CCC(=O)O [Daminozide] | 1.49 ± 2.5 | 0.206 ± 0.36 | 0.536 ± 0.28 | – | – | – | – | 0.0133 ± 0.023 | 3.23 ± 3.4 | –
19 | CN1C(=O)CN=C(c2ccccc2)c2cc(Cl)ccc21 [Diazepam] | 9.29 ± 2 | 6.7 ± 0.88 | 4.56 ± 0.4 | 66.5 ± 10 | 56.2 ± 2.7 | 34.5 ± 1.3 | 40.4 ± 3.4 | 39.3 ± 2 | 45.5 ± 6.9 | 85.2 ± 3.9
20 | CCOP(=S)(OCC)Oc1cc(C)nc(C(C)C)n1 [Diazinon] | 0.161 ± 0.14 | 0.223 ± 0.071 | 0.073 ± 0.064 | – | – | 31.2 ± 2.3 | 34 ± 2.4 | 34 ± 0.57 | 38 ± 6.1 | 62.9 ± 4.1
21 | Oc1ccc(Cl)cc1Cc1cc(Cl)ccc1O [Dichlorophen] | 53.2 ± 21 | – | – | 78.9 ± 10 | – | 0.919 ± 0.12 | 1.88 ± 0.2 | 2.38 ± 0.74 | 50.4 ± 7.8 | 45.7 ± 2.1
22 | OC(c1ccc(Cl)cc1)(c1ccc(Cl)cc1)C(Cl)(Cl)Cl [Dicofol] | 11.5 ± 8.1 | 15 ± 1.5 | 15.2 ± 3.4 | – | 0.108 ± 0.017 | – | 56.9 ± 18 | – | 14.4 ± 2.8 | 23.1 ± 0.7
23 | ClC1=C(Cl)[C@]2(Cl)[C@@H]3[C@@H]4C[C@@H]([C@H]5O[C@@H]45)[C@@H]3[C@@]1(Cl)C2(Cl)Cl [Dieldrin] | 0.594 ± 1 | – | – | – | 0.809 ± 0.21 | – | – | 97 ± 29 | 8.32 ± 1.5 | 22.5 ± 1.4
24 | O=C(NC(=O)c1c(F)cccc1F)Nc1ccc(Cl)cc1 [Diflubenzuron] | 8.71 ± 3.2 | 8.73 ± 0.29 | 4.73 ± 0.29 | – | 29.8 ± 6.3 | 36.3 ± 2.5 | 38.3 ± 2.3 | 40.4 ± 5 | – | 48.6 ± 2.1
25 | COCCN(C(=O)CCl)c1c(C)cccc1C [Dimethachlor] | 2.27 ± 0.1 | 2.96 ± 0.38 | 1.66 ± 0.09 | 45.9 ± 7 | 46.6 ± 1.6 | 34.9 ± 0.41 | 37.6 ± 4.3 | 38 ± 0.68 | 47.8 ± 7.7 | 63.4 ± 4.6
26 | COCC(C)N(C(=O)CCl)c1c(C)csc1C (stereo unspecified) [Dimethenamid] | 1.45 ± 0.053 | 2.08 ± 0.36 | 1.25 ± 0.1 | 59.7 ± 19 | 53.9 ± 1.1 | 41.5 ± 0.65 | 46.1 ± 4.6 | 44.9 ± 2.2 | 46.6 ± 8.4 | 55.4 ± 3.7
27 | O=S(=O)(c1ccccc1)c1ccccc1 [Diphenylsulfone] | 5.48 ± 3.7 | 9.14 ± 0.92 | 7.53 ± 2.3 | – | 0.293 ± 0.035 | 56.9 ± 12 | – | – | 15.5 ± 1.1 | 16.4 ± 3.6
